Our source for the activity and Activity values is ChEMBL document CHEMBL6177992, “A First-in-Class Hepatocyte Nuclear Factor 4 Agonist” (J Med Chem, 2025).

Bounds are passed on as bounds.

Data set [1] has as its target T1, CAR (nuclear receptor subfamily 1 group I member 3) (Homo sapiens, UniProt Q14994).
T1 sequence (Q14994 whole entry): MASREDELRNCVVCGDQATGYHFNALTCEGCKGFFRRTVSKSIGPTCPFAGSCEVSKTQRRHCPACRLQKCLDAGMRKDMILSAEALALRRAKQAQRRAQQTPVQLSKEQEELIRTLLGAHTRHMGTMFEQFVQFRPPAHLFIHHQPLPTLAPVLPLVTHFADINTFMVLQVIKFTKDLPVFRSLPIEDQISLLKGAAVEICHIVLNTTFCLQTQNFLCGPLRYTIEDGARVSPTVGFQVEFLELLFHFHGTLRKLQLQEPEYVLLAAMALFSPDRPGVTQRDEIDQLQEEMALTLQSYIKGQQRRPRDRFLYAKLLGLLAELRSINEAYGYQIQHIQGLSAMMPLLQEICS
Put plainly: Agonist activity at human Gal4-CARalpha-LBD expressed in HEK293T cells transfected with pFR-Luc/pRLSV40 assessed as relative luminescence at 1 uM measured after 14 to 16 hrs by hybrid reporter gene assay. Format: cell-based. Conditions: time 14-16 hrs, read-out: Activity.

Data set [2] deals with T2, Nuclear receptor subfamily 1 group I member 2 (Homo sapiens, UniProt O75469).
T2 sequence (O75469 whole entry): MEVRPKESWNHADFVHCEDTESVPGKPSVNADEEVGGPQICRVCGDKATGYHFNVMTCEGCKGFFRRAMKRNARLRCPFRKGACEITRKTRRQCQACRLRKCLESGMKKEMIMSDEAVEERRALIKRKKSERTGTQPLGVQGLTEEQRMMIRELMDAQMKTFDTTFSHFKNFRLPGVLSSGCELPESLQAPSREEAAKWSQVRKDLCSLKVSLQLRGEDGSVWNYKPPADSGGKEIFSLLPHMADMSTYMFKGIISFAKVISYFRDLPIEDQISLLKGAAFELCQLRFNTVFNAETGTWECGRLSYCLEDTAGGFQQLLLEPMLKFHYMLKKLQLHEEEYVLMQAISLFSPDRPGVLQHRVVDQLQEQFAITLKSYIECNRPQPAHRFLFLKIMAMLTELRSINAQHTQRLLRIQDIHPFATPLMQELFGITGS
Put plainly: Agonist activity at human Gal4-PXR-LBD expressed in HEK293T cells transfected with pFR-Luc/pRLSV40 assessed as relative luminescence at 1 uM measured after 14 to 16 hrs by hybrid reporter gene assay. Format: cell-based. The conditions noted are these: time 14-16 hrs.

As for `Cc1ccc(C#Cc2ccc(O)c(C(=O)O)c2)c(Cl)c1`, the activity at 1 µM in data set [1] was less than 20%. Besides, in data set [2], the Activity was less than 20%.
